Test results published in patent publication US6906094B2, “1,2,4-tribsubstituted benzenes as inhibitors of 15-lipoxygenase” (Warner-Lambert Company, priority 2000, dated 2005).

What was measured:
human 15-LO = target: T1, human 15-LO (Homo sapiens, UniProt P16050); assay: Human Lysate 15-LO Assay (HUM15LO); type: biochemical; conditions: recombinant human 15-LO, 174 μM linoleic acid, 15 minutes at 4° C., 13-HODE quantitated
T1 construct: made in house; host or cells: Sf9 insect cells (baculovirus, Bac-to-Bac)
T1 sequence (P16050 1-662): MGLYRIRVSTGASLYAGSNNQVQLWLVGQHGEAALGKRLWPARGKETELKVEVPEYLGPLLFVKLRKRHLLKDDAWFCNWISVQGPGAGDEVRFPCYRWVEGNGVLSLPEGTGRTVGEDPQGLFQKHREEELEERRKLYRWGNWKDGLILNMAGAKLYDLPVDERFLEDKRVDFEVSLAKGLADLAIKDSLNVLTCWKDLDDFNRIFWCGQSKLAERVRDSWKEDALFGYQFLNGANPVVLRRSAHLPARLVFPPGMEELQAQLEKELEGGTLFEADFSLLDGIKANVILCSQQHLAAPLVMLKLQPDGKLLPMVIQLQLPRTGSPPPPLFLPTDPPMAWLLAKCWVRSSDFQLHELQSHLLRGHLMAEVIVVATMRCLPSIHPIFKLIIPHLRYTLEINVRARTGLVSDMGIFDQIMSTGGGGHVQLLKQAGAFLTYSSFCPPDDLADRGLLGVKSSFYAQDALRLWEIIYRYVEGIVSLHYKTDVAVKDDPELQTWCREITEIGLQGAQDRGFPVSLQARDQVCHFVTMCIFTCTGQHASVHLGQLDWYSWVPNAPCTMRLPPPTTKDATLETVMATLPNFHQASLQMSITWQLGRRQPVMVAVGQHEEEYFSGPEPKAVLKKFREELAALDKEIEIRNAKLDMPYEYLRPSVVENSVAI
Method: In the HUM15LO assay, a test compound of the present invention was incubated with 15-LO enzyme in the presence of the linoleic acid substrate. For example, a known amount of a test compound of the present invention, 100 μL of human 15-LO, and 174 μM linoleic acid in PBS containing 0.2% sodium cholate were incubated for 15 minutes at 4° C. The reaction was stopped with 100 μL of mobile phase and 10 μL of triethyl phosphite. […] 13-HODE was quantitated by comparing peak areas of individual samples with those from a standard curve generated using authentic 13-HODE. The test reaction is compared to a control reaction, which is identical to the test reaction except no test compound of the present invention is present Percent inhibition is calculated as the amount of 13-HODE produced by the test reaction divided by the amount of 13-HODE produced by the control reaction, expressed as a percent.
Human 15-LO was generated in a recombinant 15-lipoxygenase bacculovirus expression system, using Gibco/BRL/Life Technologies' Bac-to-Bac expression reagents; T4 DNA ligase, Kanamycin, Gentamicin, tetracycline, penicillin, streptomycin, Bluo-gal, IPTG, DH10Bac competent cells, SOC, LB medium, Sf-900 II SFM media, Sf9 insect cells, Cell Fectin, and EcoRI, BamHI and KpnI restriction enzymes.

[1] = target: T2, rabbit reticulocyte 15-LO (Oryctolagus cuniculus, UniProt P12530); assay: Rabbit Reticulocyte 15-LO Assay (H15LO); type: biochemical; conditions: 2 U rabbit reticulocyte 15-LO, 174 μM linoleic acid, 15 minutes at 4° C., 13-HODE quantitated
T2 construct: 15-LO is obtained from phenylhydrazine-treated rabbits and purified according to the method of Rapoport; from tissue; host or cells: reticulocytes of phenylhydrazine-treated rabbits
T2 sequence (P12530 1-663): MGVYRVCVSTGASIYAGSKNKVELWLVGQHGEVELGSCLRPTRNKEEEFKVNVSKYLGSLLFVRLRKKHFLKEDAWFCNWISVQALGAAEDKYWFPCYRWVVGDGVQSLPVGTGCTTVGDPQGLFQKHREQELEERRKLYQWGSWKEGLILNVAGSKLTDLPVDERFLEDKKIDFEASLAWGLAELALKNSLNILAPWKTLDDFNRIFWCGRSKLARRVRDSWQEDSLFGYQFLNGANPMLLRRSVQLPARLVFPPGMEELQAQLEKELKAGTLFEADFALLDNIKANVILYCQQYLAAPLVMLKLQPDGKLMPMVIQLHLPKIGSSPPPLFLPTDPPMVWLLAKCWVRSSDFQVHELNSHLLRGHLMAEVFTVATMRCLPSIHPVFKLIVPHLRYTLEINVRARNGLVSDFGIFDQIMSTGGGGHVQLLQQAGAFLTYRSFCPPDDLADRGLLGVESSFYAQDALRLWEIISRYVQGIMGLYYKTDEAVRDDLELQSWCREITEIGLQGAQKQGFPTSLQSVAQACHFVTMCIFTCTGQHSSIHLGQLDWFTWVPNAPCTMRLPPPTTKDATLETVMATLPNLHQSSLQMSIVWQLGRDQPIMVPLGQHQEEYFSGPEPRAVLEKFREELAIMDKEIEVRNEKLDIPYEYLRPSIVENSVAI
Method: In the H15LO assay, a test compound was incubated with 15-LO enzyme in the presence of the linoleic acid substrate. For example, 2 units (U) of rabbit reticulocyte 15-LO and 174 μM linoleic acid were incubated with a known amount of a test compound of the present invention for 15 minutes at 4° C. The total reaction volume was 100 μL in phosphate buffer saline (PBS) containing 0.2% sodium cholate. The reaction was stopped with 100 μL of mobile phase and […] of triethyl phosphite. […] 13-HODE was quantitated by comparing peak areas of individual samples with those from a standard curve generated using authentic 13-HODE.
15-LO is obtained from phenylhydrazine-treated rabbits and purified according to the method of Rapoport (Rapoport et al., European Journal of Biochemistry, 1979;96:545-561).

melting point [°C] | IC50 (human 15-LO) [nM] | IC50 [1] [nM] | Compound
180 to 182 | – | – | COc1ccc(-c2cc3cc(F)c(F)cc3[nH]2)cc1NS(=O)(=O)NC(=O)OCCc1ccccc1 (hydrate or solvate) [Example 40, Carbamic Acid, [[[5-(5,6-difluoro-IH-indol-2-yl)-2-methoxyphenyl]amino]-sulfonyl]-2-phenylethyl ester]
173 to 177 | – | – | COc1ccc(C(=O)Nc2ccc(F)c(F)c2)cc1NS(=O)(=O)NC(=O)OCCc1ccccc1 (hydrate or solvate) [Example 41]
– | 15 | 7 | COc1ccc(-c2cc3cc(F)c(F)cc3[nH]2)cc1NS(=O)(=O)NC(=O)OCCc1ccccc1 [Example 40, Carbamic Acid, [[[5-(5,6-difluoro-IH-indol-2-yl)-2-methoxyphenyl]amino]-sulfonyl]-2-phenylethyl ester]
– | 69 | 13 | COc1ccc(C(=O)Nc2ccc(F)c(F)c2)cc1NS(=O)(=O)NC(=O)OCCc1ccccc1 [Example 41]
– | 30 | 17 | COC(=O)COC(=O)NS(=O)(=O)Nc1cc(-c2cc3cc(F)c(F)cc3[nH]2)ccc1OC [Example 43, Acetic Acid, [[[[[[5-(5,6-difluoro-1H-indol-2-yl)-2-methoxyphenyl]amino]-sulfonyl]amino]carbonyl]oxy]-, Methyl ester]
– | 133 | 80 | COc1ccc(-c2cc3cc(F)c(F)cc3[nH]2)cc1NS(=O)(=O)NC(=O)OCCCO [Example 45, Carbamic acid, [[[5-(5,6-difluoro-IH-indol-2-yl)-2-methoxyphenyl]amino]-sulfonyl]-3-hydroxypropyl ester]
– | 24 | 13 | COc1ccc(C(=O)Nc2ccc(F)c(F)c2)cc1NS(=O)(=O)NC(=O)Nc1ccc(C(C)(C)C)cc1 [Example 59, Benzamide, N-(3,4-difluorophenyl)-3-[[[[[[4-(1,1-dimethylethyl)phenyl]-amino]carbonyl]amino]sulfonyl]amino]-4-methoxy]
– | 273 | 30 | COc1ccc(C(=O)Nc2ccc(F)c(F)c2)cc1NS(=O)(=O)NC(=O)Nc1ccc(C(=O)O)cc1 [Example 65, Benzoic Acid, 4-[[[[[[5-[[(3,4-difluorophenyl)amino]carbonyl]-2-methoxyphenyl]amino]sulfonyl]amino]carbonyl]amino]]
– | 225 | 51 | COc1ccc(NC(=O)NS(=O)(=O)Nc2cc(C(=O)Nc3ccc(F)c(F)c3)ccc2OC)cc1 [Example 66, Benzamide, N-(3,4-difluorophenyl)-4-methoxy-3-[[[[[(4-methoxyphenyl)-amino]carbonyl]amino]sulfonyl]amino]]

Continued, compound first:

Compound | melting point [°C] | IC50 (human 15-LO) [nM] | IC50 [1] [nM]
COc1ccc(-c2cc3cc(F)c(F)cc3[nH]2)cc1NS(=O)(=O)NC(=O)OCCOC(C)C (hydrate or solvate) [Example 34, Carbamic Acid, [[[5-(5,6-difluoro-IH-indol-2-yl)-2-methoxyphenyl]amino]-sulfonyl]-2(1-methylethoxy)ethyl Ester] | 158 to 163 | – | –
COc1ccc(C(=O)Nc2ccc(F)c(F)c2)cc1NS(=O)(=O)NC(=O)OCCCc1ccncc1 (hydrate or solvate) [Example 39, Carbamic Acid, [[[5-[[(3,4-difluorophenyl)amino]carbonyl]-2-methoxyphenyl]amino]sulfonyl]-, 3-(4-pyridinyl)propyl ester] | 160 to 164 | – | –
CCCCOC(=O)NS(=O)(=O)Nc1cc(-c2cc3cc(F)c(F)cc3[nH]2)ccc1OC [Example 21, Carbamic Acid, [[[5-(5,6-difluoro-IH-indol-2-yl)-2-methoxyphenyl]amino]-sulfonyl]-, Butyl Ester] | – | 14 | 9
COc1ccc(-c2cc3cc(F)c(F)cc3[nH]2)cc1NS(=O)(=O)NC(=O)OCC(C)C [Example 22, Carbamic Acid, [[[5-(5,6-difluoro-IH-indol-2-yl)-2-methoxyphenyl]amino]-sulfonyl]-, 2-methylpropyl ester] | – | 25 | 25
COc1ccc(-c2cc3cc(F)c(F)cc3[nH]2)cc1NS(=O)(=O)NC(=O)Nc1cc(Cl)cc(Cl)c1 [Example 24] | – | 33 | 11
CCOC(=O)NS(=O)(=O)Nc1cc(-c2cc3cc(F)c(F)cc3[nH]2)ccc1OC [Example 25, Carbamic Acid, [[[5-(5,6-difluoro-1H-indol-2-yl)-2-methoxyphenyl]amino]-sulfonyl]-, ethyl ester] | – | 34 | 15
COc1ccc(-c2cc3cc(F)c(F)cc3[nH]2)cc1NS(=O)(=O)NC(=O)Nc1ccc(Cl)cc1 [Example 27, Urea, N-(4-chlor phenyl)-N′-[[[5-(5,6-difluoro-IH-indol-2-yl)-2-methoxyphenyl]amino]sulfonyl]] | – | 44 | 23
COc1ccc(-c2cc3cc(F)c(F)cc3[nH]2)cc1NS(=O)(=O)NC(=O)Nc1ccc(C)cc1 [Example 28, Urea, N-[[[5-(5,6-difluoro-IH-indol-2-yl)-2-methoxyphenyl]amino]sulfonyl]-N′-(4-methylphenyl)] | – | 18 | 39
COC(=O)NS(=O)(=O)Nc1cc(-c2cc3cc(F)c(F)cc3[nH]2)ccc1OC [Example 29, Carbamic Acid, [[[5-(5,6-difluoro-IH-indol-2-yl)-2-methoxyphenyl]amino]-sulfonyl]-methyl ester] | – | 85 | 47
COc1ccc(-c2cc3cc(F)c(F)cc3[nH]2)cc1NS(=O)(=O)NC(=O)OCCOC(C)C [Example 34, Carbamic Acid, [[[5-(5,6-difluoro-IH-indol-2-yl)-2-methoxyphenyl]amino]-sulfonyl]-2(1-methylethoxy)ethyl Ester] | – | 30 | 26
CNS(=O)(=O)Nc1cc(-c2cc3cc(F)c(F)cc3[nH]2)ccc1OC [Example 37, Sulfamide, N-[5-(5,6-diflouo-IH-indo-2-yl)-2-methoxyphenyl]-N′-methyl] | – | 7 | 5
CNS(=O)(=O)Nc1cc(C(=O)Nc2ccc(F)c(F)c2)ccc1OC [Example 38, Benzamide, N-(3,4-difluorophenyl)-4-methoxy-3-[[(methylamino)-sulfonyl]amino]] | – | 13 | 13
